Data: PubChem BioAssay AID743404 (Broad Institute, 2014)
Active and inactive are the calls of the source. The rule behind the calls is not given here.

Tested on: not listed separately
Experiment: replicating M. tuberculosis growth inhibition, dose response, imaging, dry powder (AID 743404)
Details: Mycobacterium tuberculosis replicating growth, CFU imaging; at 50 µM (top of the series)

| Compound | activity change, negative = inhibition |
| --- | --- |
| O=C(Nc1nc2ccccc2n1-c1ccccc1)c1ccccc1 | -7.02% (inactive) |

Same assay, conditions: Mycobacterium tuberculosis replicating growth, CFU imaging; at 100 µM (top of the series)

| Compound | activity change, negative = inhibition |
| --- | --- |
| Cn1c(NC(=O)c2ccc(N3CCOCC3)cc2)nc2ccccc21 | -9.12% (inactive) |
| CC(C)n1c(NC(=O)c2ccccc2)nc2ccccc21 | -7.84% (inactive) |
| COc1cccc2c1nc(NC(=O)c1ccccc1)n2C | -17.3% (inactive) |
| Cn1c(NC(=O)c2ccc(-n3ccnn3)cc2)nc2ccccc21 | 0.752% (inactive) |
| Cn1c(NC(=O)c2ccccc2)nc2cccnc21 | -6.96% (inactive) |
| Cn1c(NC(=O)c2ccncc2)nc2ccccc21 | -9.25% (inactive) |
| Cn1c(NC(=O)c2ccccc2)nc2cc(F)ccc21 | -9.27% (inactive) |
| Cn1c(NC(=O)Nc2ccccc2)nc2ccccc21 | -16.1% (inactive) |
| Cn1c(NC(=O)Cc2ccccc2)nc2ccccc21 | -15.4% (inactive) |
| CC(C)Oc1ccc(C(=O)Nc2nc3ccccc3n2C)cc1 | -8.59% (inactive) |
| Cn1c(NC(=O)c2ccc(F)c(F)c2)nc2ccccc21 | 1.94% (inactive) |
| Cn1c(NC(=O)c2cccs2)nc2ccccc21 | -15.5% (inactive) |
| Cc1ccc2c(c1)nc(NC(=O)c1ccccc1)n2C | -14.6% (inactive) |
| O=C(Nc1nc2ccccc2n1C1CC1)c1ccccc1 | -6.92% (inactive) |
| Cn1c(NC(=O)c2ccccc2C(F)(F)F)nc2ccccc21 | -8.14% (inactive) |
| O=C(Nc1nc2ccccc2[nH]1)c1ccccc1 | 1.93% (inactive) |
| Cn1c(NC(=O)c2ccccc2)nc2cc(Cl)ccc21 | -6.62% (inactive) |
| CN(C(=O)c1ccccc1)c1nc2ccccc2n1C | -7.26% (inactive) |
| COCCn1c(NC(=O)c2ccccc2)nc2ccccc21 | -13.8% (inactive) |
| Cn1c(NC(=O)c2ccc(-c3ncco3)cc2)nc2ccccc21 | -1.55% (inactive) |
| Cn1c(NC(=O)c2ccccc2)nc2cc(C(F)(F)F)ccc21 | -1.86% (inactive) |
| Cn1c(NC(=O)c2cccc(C(F)(F)F)c2)nc2ccccc21 | -12.4% (inactive) |
| Cn1c(NC(=O)c2ccccc2)nc2ccc3ncccc3c21 | -10.6% (inactive) |
| Cn1c(NC(=O)c2ccc(C#N)cc2)nc2ccccc21 | -1.94% (inactive) |

| Compound | activity change, negative = inhibition |
| --- | --- |
| O=C(Nc1nc2ccccc2n1CCN1CCOCC1)c1ccccc1 | -5.41% (inactive) |
| Cn1c(NC(=O)c2ccccc2)nc2cccc(Cl)c21 | -2% (inactive) |
| Cn1c(NC(=O)c2ccc3ncoc3c2)nc2ccccc21 | 1.4% (inactive) |
| O=C(Nc1nc2ccccc2s1)c1ccccc1 | -9.11% (inactive) |
| Cn1c(NC(=O)c2ccc(Cl)c(Cl)c2)nc2ccccc21 | 0.098% (inactive) |
| Cn1c(NC(=O)c2ccccc2)nc2ccc(F)cc21 | -13% (inactive) |
| Cn1c(C(=O)Nc2ccccc2)nc2ccccc21 | -11.4% (inactive) |
| Cn1c(NC(=O)c2ccccc2)nc2ccc(C#N)cc21 | 4.9% (inactive) |
| Cn1c(NS(=O)(=O)c2ccccc2)nc2ccccc21 | -4.4% (inactive) |
| Cc1cc(C(=O)Nc2nc3ccccc3n2C)on1 | -7.86% (inactive) |
| COc1ccccc1C(=O)Nc1nc2ccccc2n1C | -18% (inactive) |
| COc1cccc(C(=O)Nc2nc3ccccc3n2C)c1 | -11.3% (inactive) |
| Cn1c(NC(=O)c2ccc(OC(F)(F)F)cc2)nc2ccccc21 | 1.97% (inactive) |
| CC(=O)Nc1nc2ccccc2n1C | -2.24% (inactive) |
| Cn1c(NC(=O)c2ccno2)nc2ccccc21 | -5.54% (inactive) |
| Cn1c(NC(=O)c2nc3ccccc3s2)nc2ccccc21 | 3.65% (inactive) |
| Cn1c(NC(=O)c2ccc(N3CCOC3=O)cc2)nc2ccccc21 | 3.62% (inactive) |
| Cn1c(NC(=O)c2ccccc2Cl)nc2ccccc21 | -2.89% (inactive) |
| COc1ccc2c(c1)nc(NC(=O)c1ccccc1)n2C | -10.1% (inactive) |
| Cn1c(NC(=O)c2ccc(-c3nccs3)cc2)nc2ccccc21 | 1.95% (inactive) |
| COc1ccc(C(=O)Nc2nc3ccccc3n2C)cc1OC | -3.35% (inactive) |
| O=C(Nc1nc2ccccc2n1Cc1ccccc1)c1ccccc1 | 3.29% (inactive) |
| Cn1c(NC(=O)c2ccc(Oc3ccccc3)cc2)nc2ccccc21 | -18.8% (inactive) |
| COc1ccc(C(=O)Nc2nc3ccccc3n2C)cc1 | -7.64% (inactive) |

Tested on: Mycobacterium tuberculosis replicating growth, CFU imaging
Experiment: as above
Details: not given

| Compound | AC90 |
| --- | --- |
| Cn1c(NC(=O)c2ccccc2)nc2c3nccnc3ccc21 | 63.9 µM |
| CCN(CC)CCn1c(NC(=O)c2ccccc2)nc2ccccc21 | 102 µM |
| Cn1c(NC(=O)c2ccccc2)nc2c3ncccc3ccc21 | 10.6 µM |
| CN1CCN(c2ccc(C(=O)Nc3nc4ccccc4n3C)cc2)CC1 | > 100 µM (inactive) |
| Cn1c(NC(=O)c2ccc(N3CCCCC3)cc2)nc2ccccc21 | > 100 µM (inactive) |
| Cn1c(NC(=O)c2ccccc2)nc2cc(C#N)ccc21 | > 100 µM (inactive) |
| O=C(Nc1nc2ccccc2n1C1CCCCC1)c1ccccc1 | > 100 µM (inactive) |
| Cc1ccccc1C(=O)Nc1nc2ccccc2n1C | > 100 µM (inactive) |
| Cn1c(NC(=O)c2ccccc2)nc2c3ccncc3ccc21 | 18.4 µM |
| CO[C@H]1/C=C/O[C@@]2(C)Oc3c(C)c(O)c4c(O)c(c(C=NN5CCN(C)CC5)c(O)c4c3C2=O)NC(=O)/C(C)=C\C=C\[C@H](C)[C@H](O)[C@@H](C)[C@@H](O)[C@@H](C)[C@H](OC(C)=O)[C@@H]1C | 6.43 µM |
| Cn1c(NC(=O)c2ccccc2)nc2c(Cl)cccc21 | > 100 µM (inactive) |
| Cn1c(N2CCN(C(=O)c3ccccc3)CC2)nc2ccccc21 | > 100 µM (inactive) |
| Cn1c(NC(=O)c2ccccc2)nc2c(C#N)cccc21 | > 100 µM (inactive) |
| Cn1c(NC(=O)c2ccccc2)nc2c3cnccc3ccc21 | 14.4 µM |
| Cn1c(NC(=O)c2cccnc2)nc2ccccc21 | 99.8 µM |
| Cn1c(N)nc2ccccc21 | > 50 µM (inactive) |
